A short description of the experiment: Case of a subject with familial hypertriglyceridemia: blood lipid levels on fenofibrate alone, then on concomitant Omacor and fenofibrate. Format: in vivo, human. Set-up: HDL-Cholesterol level / Non-HDL-Cholesterol level: unit not given here.
Where [1] appears, read: same subject, fenofibrate alone vs one month of concomitant therapy.

Regarding `CC(C)OC(=O)C(C)(C)Oc1ccc(C(=O)c2ccc(Cl)cc2)cc1` [Fenofibrate, 2-[4-(4-chlorobenzoyl)phenoxy]-2-methyl-propanoic acid, 1-methylethyl ester], the TG level (person, fenofibrate (Antara 130 mg QD) about 2 weeks, then plus Omacor 4 grams/day QD for one month) was determined as 749 mg/dL. Moreover, under setting [1], the HDL-Cholesterol level is listed as 28, the Non-HDL-Cholesterol level amounted to 252 and the Total-Cholesterol level was 280 mg/dL.
